# Measured values reported in patent US6303761A, “Triaminepentaacetic acid compound and paramagnetic metal complex prepared from using the compound as ligand” (Department of Health The Executive Yuan, Republic of China, priority 1999, dated 2001).
# Where “and” joins values, the source holds several entries; their conditions need not be identical. Identical values can stand only once. Like-named read-outs stand apart in the source and are kept apart here.
# Key:
# pM value, Gd^3+ = conditions: pH 7.4, TL 1.1×10^-5, TM 1.0×10^-6 mol dm^-3
# [1] = Selectivity constant of the ligand for Gd^3+ over Cu^2+; format: physicochemical
# [2] = Selectivity constant of the ligand for Gd^3+ over Zn^2+; format: physicochemical
# [3] = Species distribution of the ligands at various pH values (SPE, SPEPLOT); format: physicochemical; conditions: 7.0×10^-3 mol dm^-3 system
# From the text: The average difference between observed and calculated -log[H^+ ] was <0.04 throughout all titrations.
# When pH=7.0, the concentration of [H2 L]^3- is the maximum (97.5%). In the pH 3-5 range, the dominant species is the third protonated species [H3 L]^2-. When pH=3.7, the concentration of [H3 L]^2- is the maximum (87.75%). […] When pH=9.8, the concentration of [HL]^4- is the maximum (77.5%). In the pH 2-3 range, the dominant species is the fourth protonated species [H4 L]^-. When pH=2.3, the concentration of [H4 L]^- is the maximum (60.9%). In the pH range greater than 11, the dominant species is the deprotonated species [L]^5-.
# When pH=2.7, the concentration of [H4 L]^- is the maximum (55.9%). In the pH 3.5-7 range, the dominant species is the third protonated species [H3 L]^2-. When pH=5, the concentration of [H3 L]^2- is the maximum (97.7%). In the pH 7-9 range, the dominant species is the second protonated species [H2 L]^3-. When pH=8.1, the concentration of [H2 L]^3- is the maximum (86.5%). […] When pH=9.9, the concentration of [HL]^4- is the maximum (71.6%). In the pH range greater than 12, the dominant species is the deprotonated species [L]^5-. In the pH range less than 2, the dominant species is the totally protonated species [H5 L].
# When pH=2.8, the concentration of [H4 L]^- is the maximum (45.9%). In the pH 3.5-7.5 range, the dominant species is the third protonated species [H3 L]^2-. When pH=5.2, the concentration of [H3 L]^2- is the maximum (99.0%). In the pH 8-9.5 range, the dominant species is the second protonated species [H2 L]^3-. When pH=8.6, the concentration of [H2 L]^3- is the maximum (78.8%). In the pH 9.5-11 range, the dominant species is the first protonated species [HL]^4-. When pH=10.1, the concentration of [HL]^4- is the maximum (67.2%). In the pH range greater than 12, the dominant species is the deprotonated species [L]^5-. In the pH range less than 2, the dominant species is the totally protonated species [H5 L].
# [4] = format: physicochemical
# pM value, Cu^2+ = conditions: pH 7.4, TL 1.1×10^-5, TM 1.0×10^-6 mol dm^-3
# pM value, Zn^2+ = conditions: pH 7.4, TL 1.1×10^-5, TM 1.0×10^-6 mol dm^-3
# [5] = Thermodynamic and conditional stability constants of the Cu^2+ complexes (potentiometric titration, program BEST); format: physicochemical; conditions: 25.0 ± 0.1° C., aqueous Me4 NNO3, I = 0.10 mol dm^-3
# Description: (§1) The pH electrode was calibrated using two standard buffer solutions with pH 7.0±0.05 and pH 4.0±0.05 respectively. The ionic strength was 0.10 mol dm^-3 Me4 NNO3 ((CH3)4 NNO3). […] The titrant used was 0.1 mol dm^-3 NaOH with a titration amount of 0.005 ml/time.
# (§2) (1) Direct Potentiometric Titration: The metal ion and ligand is mixed in 1:1 molar ratio.
# (§3) (2) Ligand-ligand Competition Titration: The metal ion, ligand, and EDTA is mixed in 1:1:1 molar ratio.
# (§4) M: metal ion, L: organic ligand, ML: metal complex The conditional stability constant is defined by equation (2): [formula]
# (§5) The relationship between the conditional stability constant and the thermodynamic stability constant is defined by equation (3): [formula]
# (§6) K2^H [H^+ ]^2 + . . . }^-1 =KthermαH
# [6] = Thermodynamic and conditional stability constants of the Ca^2+ complexes (potentiometric titration, program BEST); format: physicochemical; conditions: 25.0 ± 0.1° C., aqueous Me4 NNO3, I = 0.10 mol dm^-3
# Description: as §1, §2, §3, §4, §5, §6
# pM value, Ca^2+ = conditions: pH 7.4, TL 1.1×10^-5, TM 1.0×10^-6 mol dm^-3
# [7] = Protonation constants of the organic ligands (potentiometric titration, program PKAS); format: physicochemical; conditions: for pKa: aqueous me4nno3, 25.0 ± 0.1° C., aqueous Me4 NNO3, I = 0.10 mol dm^-3
# Description: The ionic strength was 0.10 mol dm^-3 Me4 NNO3 ((CH3)4 NNO3). […] The titrant used was 0.1 mol dm^-3 NaOH with a titration amount of 0.005 ml/time.
# [8] = Thermodynamic and conditional stability constants of the Zn^2+ complexes (potentiometric titration, program BEST); format: physicochemical; conditions: 25.0 ± 0.1° C., aqueous Me4 NNO3, I = 0.10 mol dm^-3
# Description: as §1, §2, §3, §4, §5, §6
# [9] = Selectivity constant of the ligand for Gd^3+ over Ca^2+; format: physicochemical
# [10] = for log K [GdL]/[Gd][L]: 25.0 ± 0.1° C., aqueous Me4 NNO3, I = 0.10 mol dm^-3
# [11] = in vivo; cited from earlier work
# liver = assay: MR imaging, liver enhancement, healthy rat; format: in vivo; conditions: 0.1 mmol/kg
# Description: (§7) Sodium pentobarbital was injected into the tail veins of […] rats (which have a healthy liver or tumorous liver) in a dosage of 40-50 mg/kg. The rats were placed on the head coil of an 1.5 T magnetic resonance imaging instrument. The T1-weighted (TR/Te, 15/6.1 msec) image was obtained by turbo field echo with the number of signal average. The field of view (FOV), the cross-sectional thickness, and the image matrix were 22 cm, 4 mm, and 128×256 respectively.
# (§8) Before injecting the contrast agent, a set of T1-weighted baseline images were taken. In the first five minutes, the images were taken at a very short time interval in order to evaluate the dynamic enhancement condition. Afterwards, the images were taken every 10, 20, 30, 40, 50, and 60 minutes in order to observe the continuous enhancement effect.
# (§9) By means of the computer software contained in the MRI instrument, the region of interest (ROI) can be determined by the operator. The signal intensities (SI) of liver, phantom, and kidney were measured. The enhancement percentage of an organ (liver or kidney) and the enhancement percentage of liver relative to kidney were calculated by the following equations. The statistical method used was Wilcoxon Signed Rank Test. [formula] [formula]
# [12] = Relaxivity R1 and its pH dependence
# kidney = assay: MR imaging, kidney enhancement, healthy rat; format: in vivo; conditions: 0.1 mmol/kg
# Description: as §7, §8, §9
compound,measurement,setting,value
"O=C(O)CN(CCCN(CC(=O)O)CC(=O)O)CCN(CC(=O)O)CC(=O)O [TTDA, 3,6,10-tri(carboxymethyl)-3,6,10-triazadodecanedioic acid]",pM (Gd^3+),"pM value, Gd^3+",17.03
same,selectivity constant log K(Gd/Cu),[1],3.46
same,selectivity constant log K(Gd/Zn),[2],4.18
same,maximum concentration of first protonated species [HL]^4-,[3],77.5%
same,maximum concentration of fourth protonated species [H4 L]^-,[3],60.9%
same,maximum concentration of second protonated species [H2 L]^3-,[3],97.5%
same,maximum concentration of third protonated species [H3 L]^2-,[3],87.75%
same,pH of maximum concentration of [H2 L]^3-,[3],7.0 pH
same,pH of maximum concentration of [H3 L]^2-,[3],3.7 pH
same,pH of maximum concentration of [H4 L]^-,[3],2.3 pH
same,pH of maximum concentration of [HL]^4-,[3],9.8 pH
same,pH range in which [H2 L]^3- is dominant,[3],5-9 pH
same,pH range in which [H3 L]^2- is dominant,[3],3-5 pH
same,pH range in which [H4 L]^- is dominant,[3],2-3 pH
same,pH range in which [HL]^4- is dominant,[3],9-10.5 pH
same,pH range in which deprotonated species [L]^5- is dominant,[3],greater than 11 pH
same,modified selectivity constant log K sel',"[4]; pH 7.4, plasma concentrations of Ca^2+, Cu^2+ and Zn^2+",8.44
same,pM (Cu^2+),"pM value, Cu^2+",13.58
same,pM (Zn^2+),"pM value, Zn^2+",13.22
same,log K [CuHL]/[CuL][H],[5],5.52
same,log K [CuL]/[Cu][L],[5],19.31
same,log K [CaHL]/[CaL][H],[6],6.06
same,pM (Ca^2+),"pM value, Ca^2+",9.73
same,"basicity, Σ PKa",[7],27.44
same,pKa,"[7]; read-out: first protonation constant log K1^H, [HL]/[L][H]",10.6
same,pKa,"[7]; read-out: fourth protonation constant log K4^H, [H4 L]/[H3 L][H]",2.8
same,pKa,"[7]; read-out: second protonation constant log K2^H, [H2 L]/[HL][H]",8.92
same,pKa,"[7]; read-out: third protonation constant log K3^H, [H3 L]/[H2 L][H]",5.12
same,log K [ZnHL]/[ZnL][H],[8],7.41
same,selectivity constant log K(Gd/Ca),[9],8.32
same,log K [GdL]/[Gd][L],[10],22.77
same,conditional stability constant log KGdL',[10]; pH 7.4,18.04
O=C([O-])CN(CCN(CC(=O)[O-])CC(=O)[O-])CCN(CC(=O)[O-])CC(=O)[O-].[Gd+3] [[Gd(DTPA)]^2-],LD50,[11],5.6 mmol/kg
same,time to maximum liver enhancement,liver,≤ 1 min
same,liver enhancement after 30 minutes,liver; 30 minutes,24±7%
same,maximum liver enhancement,liver; within 1 minute,57±9%
same,modified selectivity constant log K sel',[4]; pH 7.4,7.07 and 7.04
same,Relaxivity R1,[12]; pH 7.5 ± 0.1,3.71 dm^3 mmol^-1 s^-1 and 3.71 ± 0.05 dm^3 mmol^-1 s^-1
same,Relaxivity R1 (conclusion),[12]; pH not given,3.70 dm^3 mmol^-1 s^-1
same,time to maximum kidney enhancement,kidney,1 min
same,kidney enhancement at 30 minutes,kidney; 30 minutes,109±14%
same,log K [GdL]/[Gd][L],[10],22.46
same,conditional stability constant (log Kcond),[10]; pH 4,11.25
same,stability constant larger than that of [Gd(DTPA-BMA)] by,[10]; pH 7.4,3.2
same,stability constant under physiological conditions (pH 7.4),[10]; pH 7.4,22.46
same,stability constant (log KML) larger than that of [Gd(DTPA-BMA)] by,[10]; pH 11,5.5
